From US20020156032A1, “Inhibition of DNA methyltransferase” (priority 1994, published 2002)

Assays:
[1] = test system: Y1 cells; experiment: Anchorage independent growth in soft agar; assay type: cell-based; conditions: 0-10 μM for 72 h, then soft agar without drug
Description: Yl cells were maintained as monolayers in F-10 medium which was supplemented with 7.25% heat inactivated horse serum and 2.5% heat inactivated fetal calf serum (Immunocorp, Montreal). All other media and reagents for cell culture were obtained from GIBCO-BRL. Yl cells (1×10^6) were plated on a 150 mm dish (Nunc) 15 hours before transfection. The pZαM expression vector encoding the 5′ of the murine DNA MeTase cDNA (10 ug) was cointroduced into Yl cells with 1 ug of pUCSVneo as a selectable marker by DNA mediated gene transfer using the calcium phosphate protocol (Ausubel et al., 1988, In Current Protocols in Molecular Biology. Wiley and Sons, New York). Selection was initiated 48 hours after transfection by adding 0.25 mg/ml G418 (GIBCO-BRL) to the medium. G418 resistant cells were cloned in selective medium. […] Growth was scored as colonies containing >10 cells, 21 days after plating.
To determine whether the expression of antisense to the DNA MeTase results in reversal of the tumorigenic potential the ability of the transfectants to grow in an anchorage independent fashion, which is considered an indicator of tumorigenicity, was also determined. […] Growth on soft agar was quantified by visual examination and presented graphically in FIG. 4C. […]

[2] = molecular target: T1, DNA MeTase (Mus musculus, UniProt P13864); experiment: Nearest neighbour analysis of methylated cytosines in CpG of total genomic DNA; assay type: cell-based, murine; conditions: Y1 cells, 0-10 μM for 72 h
T1 construct: endogenous in cells; host or cells: Y1 cells (parental, pZEM control transfectants and pZαM antisense transfectants)
Description: To determine whether expression of antisense RNA to the DNA MeTase gene leads to a general reduction in the level of methylation of the genome, we resorted to “nearest neighbour” analysis using [α-32P]-dGTP as previously was performed. This assay enables the determination of the percentage of methylated cytosines residing in the dinucleotide sequence CpG (Razin et al., 1985, IN Biochemistry and Biology of DNA methylation, p. 239, Razin et al., (Ed), Allan R. Liss, Inc. N.Y.). […] Equal amounts of radioactivity were loaded on TLC phosphocellulose plates (Merck) and the 3′ mononucleotides were separated by chromatography in one dimension (iso-butyric acid: H2O:NH4OH in the ratio 66:33:1). The chromatograms were exposed to XAR™ film (Eastman-Kodak) and the spots corresponding to cytosine and 5-methylcytosine were scraped and counted in a β-scintillation counter.
Transfectants and control DNAs were nicked with DNAaseI, nick translated with a single nucleotide [α-32P]-dGTP using DNA polymerase I and the labelled DNA was digested to 3′ mononucleotide phosphates with micrococal nuclease which cleaves DNA 3′ to the introduced α-32p. The [α-32P] labelled 5′ neighbours of dGMP were separated by chromatography on a TLC plate, the resulting spots for dCMP and dC^metMp were scraped and counted by liquid scintillation. […]

[3] = test system: Y1 cells; experiment: Viability by trypan blue staining under serum deprivation; assay type: cell-based; conditions: 0-10 μM for 72 h, then 1% horse serum five days without drug
From the text: Factors present in the serum are essential for the survival of many nontumorigenic cells. […] For example, the oncogene bc1-2 is not a stimulator of cell proliferation but rather causes inhibition of apoptosis. […] It was reasoned that as factors in the serum are known to act as survival factors for cells, an apoptotic program could be activated only when these factors are remove. To test whether pZαM transfectants undergo programmed cell death under serum deprived condition, the effects of serum starvation on these transfectants was studied. pZαM transfectants and control Yl pZEM transfectants (3×10^5 per well) were plated in low serum medium (1% horse serum) in six well plates, harvested every 24 hours and tested for viability by trypan blue staining (FIG. 7B).
1×10^5 Y1 cells were plated in growth medium. Twenty-four hours after plating, the medium was replaced with fresh medium containing various concentrations (0-10 μM) of 5 azaCdR (Sigma). The medium was removed and replaced with fresh medium containing 5 azaCdR every 12 h for a period of 72 h. Following 5 azaCdR treatment the cells were plated onto a six well dish in growth medium (100, 300, 500 cells per well) for cologinecity determinations, in soft agar for determining anchorage independent growth (3×10^3 cells per well) and in low serum (1% horse serum) for five days to determine viability under serum deprived conditions. […]

T1 sequence (P13864 whole entry): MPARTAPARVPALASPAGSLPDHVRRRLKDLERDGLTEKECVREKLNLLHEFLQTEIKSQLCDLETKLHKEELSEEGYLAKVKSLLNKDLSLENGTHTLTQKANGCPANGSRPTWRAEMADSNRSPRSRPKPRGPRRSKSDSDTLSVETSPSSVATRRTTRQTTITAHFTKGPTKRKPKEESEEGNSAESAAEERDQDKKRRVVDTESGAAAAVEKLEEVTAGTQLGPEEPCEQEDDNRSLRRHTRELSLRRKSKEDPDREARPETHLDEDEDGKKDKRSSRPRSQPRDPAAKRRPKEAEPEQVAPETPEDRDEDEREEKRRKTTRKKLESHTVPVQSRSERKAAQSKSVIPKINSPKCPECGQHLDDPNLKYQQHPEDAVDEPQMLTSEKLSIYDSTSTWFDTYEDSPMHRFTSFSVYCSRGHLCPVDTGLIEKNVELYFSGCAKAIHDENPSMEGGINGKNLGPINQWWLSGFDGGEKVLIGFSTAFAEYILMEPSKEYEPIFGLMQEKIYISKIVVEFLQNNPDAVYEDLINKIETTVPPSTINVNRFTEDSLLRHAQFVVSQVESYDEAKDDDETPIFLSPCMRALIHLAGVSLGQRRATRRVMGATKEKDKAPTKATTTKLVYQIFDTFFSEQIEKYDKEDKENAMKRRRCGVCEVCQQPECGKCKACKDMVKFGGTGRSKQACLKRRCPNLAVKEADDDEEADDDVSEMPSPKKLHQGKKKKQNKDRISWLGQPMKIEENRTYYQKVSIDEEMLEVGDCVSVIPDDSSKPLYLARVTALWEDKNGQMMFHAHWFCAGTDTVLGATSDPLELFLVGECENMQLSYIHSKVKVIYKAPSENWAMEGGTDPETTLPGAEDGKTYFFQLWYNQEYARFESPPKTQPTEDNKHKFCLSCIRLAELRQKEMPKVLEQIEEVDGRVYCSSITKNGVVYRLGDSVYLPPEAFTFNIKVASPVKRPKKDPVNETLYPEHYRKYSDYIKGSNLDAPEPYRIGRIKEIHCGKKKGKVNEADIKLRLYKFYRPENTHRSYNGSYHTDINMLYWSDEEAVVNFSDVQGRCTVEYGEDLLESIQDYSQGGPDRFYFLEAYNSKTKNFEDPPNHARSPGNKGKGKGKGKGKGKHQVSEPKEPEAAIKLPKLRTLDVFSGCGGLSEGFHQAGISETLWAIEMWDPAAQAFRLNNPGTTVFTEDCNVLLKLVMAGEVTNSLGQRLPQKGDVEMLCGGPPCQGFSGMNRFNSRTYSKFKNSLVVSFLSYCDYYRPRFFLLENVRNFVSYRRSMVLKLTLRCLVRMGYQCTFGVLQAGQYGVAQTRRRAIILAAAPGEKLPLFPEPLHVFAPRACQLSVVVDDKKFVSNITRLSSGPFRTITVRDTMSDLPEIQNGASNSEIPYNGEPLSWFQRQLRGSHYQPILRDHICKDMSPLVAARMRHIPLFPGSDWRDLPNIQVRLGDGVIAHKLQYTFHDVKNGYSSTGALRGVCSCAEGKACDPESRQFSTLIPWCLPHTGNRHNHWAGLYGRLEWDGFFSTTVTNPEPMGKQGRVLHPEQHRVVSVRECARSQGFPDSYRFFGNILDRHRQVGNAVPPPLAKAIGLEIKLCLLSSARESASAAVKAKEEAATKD

Nc1ncn([C@H]2C[C@H](O)[C@@H](CO)O2)c(=O)n1 [5 azaCdR]
growth on soft agar [1]: drastically inhibit the growth of Y1 cells on soft agar
level of non-methylated cytosine in CpG [2]: increase the level of non-methylated cytosine
viability of serum-starved cells [3]: decrease the viability of serum-starved cells
